Experimental data as given in patent US11472805B2, “Tricyclic compounds and their use as phosphodiesterase inhibitors” (Pfizer Inc., priority 2015, dated 2022).
pIC50: −log10 of the molar value. Like-named read-outs stand apart in the source and are kept apart here.

Assays:
Assay type in all cases: biochemical
human PDE4D3 = human PDE4D3 (Homo sapiens (Human), UniProt Q08499); test: PDE4D3 Scintillation Proximity Assay (SPA), inhibition of enzyme activity; settings: read-out: Human PDE4D FL
Summary of the method: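 His-tagged human PDE4D3 (aa 50–672), expressed in insect cells, hydrolysed 1 μM cAMP (3H tracer plus cold) for 30 min at 25° C in 50 mM Tris pH 7.5, 1.3 mM MgCl2 and 0.01% Brij. Enzyme level was set for ~20% conversion. Product was read by yttrium silicate SPA beads after 8 h settling.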

Human PDE4B1 = Human PDE4B1 (Homo sapiens (Human), UniProt Q07343, S133E/S654A/S659A/S661A); test: PDE4B1 Scintillation Proximity Assay (SPA), inhibition of enzyme activity; settings: read-out: Human PDE4B FL
Sequence of Human PDE4B1 (Q07343 122-736 S133E/S654A/S659A/S661A): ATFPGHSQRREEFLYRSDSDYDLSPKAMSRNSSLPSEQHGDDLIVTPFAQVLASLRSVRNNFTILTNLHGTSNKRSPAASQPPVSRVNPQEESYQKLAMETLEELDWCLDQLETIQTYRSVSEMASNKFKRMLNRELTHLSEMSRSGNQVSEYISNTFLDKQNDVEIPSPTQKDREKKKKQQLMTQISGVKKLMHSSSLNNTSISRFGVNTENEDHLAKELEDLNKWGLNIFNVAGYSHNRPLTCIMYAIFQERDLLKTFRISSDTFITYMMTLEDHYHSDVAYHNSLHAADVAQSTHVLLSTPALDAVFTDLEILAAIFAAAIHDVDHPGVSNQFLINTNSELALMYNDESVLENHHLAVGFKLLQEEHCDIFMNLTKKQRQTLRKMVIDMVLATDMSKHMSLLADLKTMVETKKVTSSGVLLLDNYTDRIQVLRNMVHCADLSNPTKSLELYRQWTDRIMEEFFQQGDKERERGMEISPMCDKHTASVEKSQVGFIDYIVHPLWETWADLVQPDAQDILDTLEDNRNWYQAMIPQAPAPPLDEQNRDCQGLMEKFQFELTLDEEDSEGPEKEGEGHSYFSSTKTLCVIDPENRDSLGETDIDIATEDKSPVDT
Summary of the method: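 His-tagged enzyme from baculovirus-infected insect cells, Ni-NTA purified. SPA with 1 μM cAMP (20 nM 3H-cAMP tracer) in 50 mM Tris pH 7.5, 1.3 mM MgCl2, 0.01% Brij, […] PDE4B enzyme for ~20% substrate conversion; 30 min at 25 °C, stopped with yttrium silicate beads, read after 8 h settling.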

Human PDE4A3 = Human PDE4A3 (Homo sapiens (Human), UniProt P27815); test: PDE4A3 Scintillation Proximity Assay (SPA), inhibition of enzyme activity; settings: read-out: Human PDE4A FL
Sequence of Human PDE4A3 (P27815 other isoform, or with tags, fused parts or gaps): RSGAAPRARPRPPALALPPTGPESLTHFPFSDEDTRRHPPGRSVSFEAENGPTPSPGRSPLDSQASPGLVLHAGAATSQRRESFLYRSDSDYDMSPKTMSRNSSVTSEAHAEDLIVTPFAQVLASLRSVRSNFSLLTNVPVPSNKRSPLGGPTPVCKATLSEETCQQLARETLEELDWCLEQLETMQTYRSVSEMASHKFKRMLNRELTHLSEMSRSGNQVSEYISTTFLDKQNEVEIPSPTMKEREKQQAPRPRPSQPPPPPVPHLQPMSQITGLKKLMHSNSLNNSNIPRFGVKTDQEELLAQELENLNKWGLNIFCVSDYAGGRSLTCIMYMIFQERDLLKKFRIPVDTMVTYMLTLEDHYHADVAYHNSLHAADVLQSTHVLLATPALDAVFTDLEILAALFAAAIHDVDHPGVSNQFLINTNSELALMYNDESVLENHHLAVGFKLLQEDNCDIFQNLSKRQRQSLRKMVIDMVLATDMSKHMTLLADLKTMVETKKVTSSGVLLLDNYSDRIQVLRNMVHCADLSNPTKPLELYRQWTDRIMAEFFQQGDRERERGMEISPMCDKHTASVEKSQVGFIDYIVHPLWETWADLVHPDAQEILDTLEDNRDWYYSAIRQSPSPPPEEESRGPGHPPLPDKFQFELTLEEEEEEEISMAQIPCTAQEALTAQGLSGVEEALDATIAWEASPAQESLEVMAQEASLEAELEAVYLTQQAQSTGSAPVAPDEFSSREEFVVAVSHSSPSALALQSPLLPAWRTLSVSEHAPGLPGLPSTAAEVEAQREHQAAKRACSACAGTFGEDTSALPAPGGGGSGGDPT
Summary of the method: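 Recombinant human PDE4A3 expressed in insect cells, purified via Ni-NTA, anti-FLAG and size exclusion. SPA run 30 min at 25 °C in 50 mM Tris pH 7.5, 1.3 mM MgCl2, 0.01% Brij with 1 μM cAMP (20 nM 3H-cAMP), […], ~20% substrate conversion; stopped with yttrium silicate beads.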

Human PDE4C1 = Human PDE4C1 (Homo sapiens (Human), UniProt Q08493); test: PDE4C1 Scintillation Proximity Assay (SPA), inhibition of enzyme activity; settings: read-out: Human PDE4C FL
Sequence of Human PDE4C1 (Q08493 2-712): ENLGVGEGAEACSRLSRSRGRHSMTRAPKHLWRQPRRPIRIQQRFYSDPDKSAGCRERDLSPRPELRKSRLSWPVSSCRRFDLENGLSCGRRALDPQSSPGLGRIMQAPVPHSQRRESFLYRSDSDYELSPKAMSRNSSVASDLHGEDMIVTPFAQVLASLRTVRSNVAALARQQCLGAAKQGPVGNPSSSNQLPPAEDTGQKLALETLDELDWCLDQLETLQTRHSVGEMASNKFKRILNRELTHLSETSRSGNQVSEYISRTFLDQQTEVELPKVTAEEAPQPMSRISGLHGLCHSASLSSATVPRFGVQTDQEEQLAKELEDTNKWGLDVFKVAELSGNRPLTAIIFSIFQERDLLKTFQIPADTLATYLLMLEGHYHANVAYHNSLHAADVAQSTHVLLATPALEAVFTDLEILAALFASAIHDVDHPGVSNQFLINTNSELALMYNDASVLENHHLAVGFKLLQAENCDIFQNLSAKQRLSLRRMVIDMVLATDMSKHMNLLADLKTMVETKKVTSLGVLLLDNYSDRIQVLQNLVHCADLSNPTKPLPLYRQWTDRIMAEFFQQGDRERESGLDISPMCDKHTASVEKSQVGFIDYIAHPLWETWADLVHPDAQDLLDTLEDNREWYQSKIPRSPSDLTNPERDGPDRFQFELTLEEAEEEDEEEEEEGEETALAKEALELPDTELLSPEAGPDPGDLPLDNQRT
Procedure: The PDE4A, PDE4B, PDE4C and PDE4D binding affinity for the compounds of the present invention was determined utilizing the following biological assay(s):
The recombinant Bacmid was isolated and used to transfect insect cells to generate a viral stock. To generate cell paste for purification, insect cells were infected with the virus stock and cells were harvested 72 hours after infection. Insect cell paste was lysed and after centrifugation, the supernatant was batch bound to Ni-NTA agarose (GE Healthcare) and eluted with 250 mM imidazole. This eluate was diluted with FLAG buffer (50 mM Tris HCL pH 7.5, 100 mM NaCl, 5% Glycerol, 1 mM TCEP with protease inhibitors) and batch bound to ant-FLAG M2 agarose (Sigma) overnight at 4° C. The agarose was packed into a column, washed with buffer and eluted with buffer containing elute using 250 ug/ml Flag-peptide. Fractions were analyzed using SDS-PAGE Coomassie blue staining and pooled based on purity. Pooled fractions were chromatographed on a S200 120 ml column (GE Healthcare) in 50 mM Tris HCL pH 7.5, 150 mM NaCl, 10% Glycerol, 2 mM TCEP with protease inhibitors. PDE4C1 fractions were analyzed by SDS-PAGE Coomassie blue staining, pooled based on purity, dialyzed against 50 mM Tris HCL pH 7.5, 100 mM NaCl, 20% Glycerol, 2 mM TCEP, frozen and stored at −80° C.
The PDE4A3, PDE4B1, PDE4C1 and PDE4D3 assays use the Scintillation Proximity Assay (SPA) technology to measure the inhibition of human recombinant PDE4A1, PDE4B3, PDE4C1, and PDE4D3 enzyme activity by compounds in vitro. The PDE4A1, PDE4B3, PDE4C1, and PDE4D3 assays are run in parallel using identical parameters, except for the concentration of enzyme ([…]). The assays are performed in a 384-well format with 50 uL assay buffer (50 mM TRIS pH7.5; 1.3 mM MgCl2; 0.01% Brij) containing enough PDE4A3, PDE4B1, PDE4C1, and PDE4D to convert ˜20% of substrate (1 μM cAMP consisting of 20 nM 3H-cAMP+[…] cold cAMP) and a range of inhibitors. Reactions are incubated for 30 min at 25° C. The addition of 20 uL of 8 mg/ml yitrium silicate SPA beads (Perkin Elmer) stops the reaction. The plates are sealed (TopSeal, Perkin Elmer) and the beads are allowed to settle for 8 hrs, after which they are read on the Trilux Microbeta overnight.

[1] = Table 9, geometric mean of 2-9 determinations unless otherwise indicated
[2] = Table 10, geometric mean of 2-9 determinations unless otherwise indicated

Sequence of human PDE4D3 (Q08499 186-808): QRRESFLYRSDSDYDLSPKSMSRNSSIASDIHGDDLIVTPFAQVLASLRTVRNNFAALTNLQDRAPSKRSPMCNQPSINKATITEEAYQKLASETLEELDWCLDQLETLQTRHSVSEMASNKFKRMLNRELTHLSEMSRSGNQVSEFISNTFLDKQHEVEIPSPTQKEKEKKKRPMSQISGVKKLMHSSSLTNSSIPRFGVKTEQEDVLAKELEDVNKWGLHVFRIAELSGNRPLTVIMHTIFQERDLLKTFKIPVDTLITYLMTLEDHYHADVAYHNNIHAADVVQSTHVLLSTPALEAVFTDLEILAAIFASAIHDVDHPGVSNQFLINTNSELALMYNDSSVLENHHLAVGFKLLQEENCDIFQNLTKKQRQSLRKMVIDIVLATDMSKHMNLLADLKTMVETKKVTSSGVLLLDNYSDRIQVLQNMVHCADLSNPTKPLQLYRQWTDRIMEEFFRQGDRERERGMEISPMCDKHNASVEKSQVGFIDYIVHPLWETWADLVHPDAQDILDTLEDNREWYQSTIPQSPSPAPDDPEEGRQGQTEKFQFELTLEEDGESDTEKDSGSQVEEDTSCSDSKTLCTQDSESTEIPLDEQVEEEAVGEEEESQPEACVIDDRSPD

| pIC50 (human PDE4D3; [1]) | pIC50 (Human PDE4B1; [1]) | pIC50 (Human PDE4A3; [1]) | pIC50 (Human PDE4C1; [1]) | pIC50 (human PDE4D3; [2]) | pIC50 (Human PDE4B1; [2]) | pIC50 (Human PDE4A3; [2]) | pIC50 (Human PDE4C1; [2]) | SMILES |
| --- | --- | --- | --- | --- | --- | --- | --- | --- |
| 6.34 | 8.16 | 8.27 | 7.78 |  |  |  |  | Cc1ccc(-c2c3ncccc3n3ccn(C4CC4)c(=O)c23)c(C)c1 [Example 66, 8-Cyclopropyl-10-(2,4-dimethyl-phenyl)pyrido[2′,3′:4,5]pyrrolo[1,2-a]pyrazin-9(8H)-one] |
|  |  |  |  | < 4.52 | < 4.59 | 4.81 | < 4.52 | Cc1cccnc1-c1c2n(c3cccnc13)CCN(C1CC1)C2=O [Example 84, 8-Cyclopropyl-10-(3-methylpyridin-2-yl)-7,8-dihydropyrido[2′,3′:4,5]pyrrolo[1,2-a]pyrazin-9(6H)-one] |
|  |  |  |  | 7.54 | 8.58 | 8.60 | 7.74 | O=C1c2c(C3CCCC3)c3ncccc3n2CCN1C1CC1 [Example 86, 10-Cyclopentyl-8-cyclopropyl-7,8-dihydropyrido[2′,3′:4,5]pyrrolo[1,2-a]pyrazin-9(6H)-one] |
| 7.07 | 8.67 | 8.41 | 7.68 |  |  |  |  | Cc1cc(C#N)c(F)cc1-c1c2n(c3scnc13)CCN(C1CC1)C2=O [Example 28, 4-(7-Cyclopropyl-8-oxo-5,6,7,8-tetrahydro[1,3]thiazolo[4′,5′:4,5]pyrrolo[1,2-a]pyrazin-9-yl)-2-fluoro-5-methylbenzonitrile] |
| 6.20 | 7.62 | 7.90 | 7.20 |  |  |  |  | O=C1c2c(-c3ccc4ncnn4c3)c3ncccc3n2CCN1C1CC1 [Example 58, 8-Cyclopropyl-10-([1,2,4]triazolo[1,5-a]pyridin-6-yl)-7,8-dihydropyrido[2′,3′:4,5]pyrrolo[1,2-a]pyrazin-9(6H)-one] |
|  |  |  |  | 5.35 | 5.56 | 6.05 | 5.63 | Cn1cc(-c2c3n(c4cccnc24)CCN(C2CC2)C3=O)cn1 [Example 91, 8-Cyclopropyl-10-(1-methyl-1H-pyrazol-4-yl)-7,8-dihydropyrido[2′,3′:4,5]pyrrolo[1,2-a]pyrazin-9(6H)-one] |
| 7.54 | > 9.28 | > 9.52 | > 9.24 |  |  |  |  | C[C@H]1Cn2c(c(-c3ccc(Cl)cc3)c3ncccc32)C(=O)N1C1CC1 [Example 11, (7S)-10-(4-Chlorophenyl)-8-cyclopropyl-7-methyl-7,8-dihydropyrido[2′,3′: 4,5]pyrrolo[1,2-a]pyrazin-9(6H)-one] |
|  |  |  |  | < 4.52 | 4.73 | 4.95 | 5.32 | Cc1csc(-c2c3n(c4cccnc24)CCN(C2CC2)C3=O)n1 [Example 82, 8-Cyclopropyl-10-(4-methylthiazol-2-yl)-7,8-dihydropyrido[2′,3′:4,5]pyrrolo[1,2-a]pyrazin-9(6H)-one] |
| 5.97 | 7.36 | 7.56 | 7.28 |  |  |  |  | N#Cc1ccc(-c2c3n(c4scnc24)CCN(C2CC2)C3=O)cn1 [Example 71, 5-(7-Cyclopropyl-8-oxo-5,6,7,8-tetrahydro[1,3]thiazolo[4′,5′:4,5]pyrrolo[1,2-a]pyrazin-9-yl)pyridine-2-carbonitrile] |
| 6.69 | 8.39 | 8.64 | 8.16 |  |  |  |  | O=C1c2c(-c3cc(F)ccc3F)c3ncccc3n2CCN1C1CC1 [Example 46, 8-Cyclopropyl-10-(2,5-difluorophenyl)-7,8-dihydropyrido[2′,3′:4,5]pyrrolo[1,2-a]pyrazin-9(6H)-one] |
| 6.85 | 8.94 | 8.70 | 8.54 |  |  |  |  | O=C1c2c(-c3ccc(Cl)cc3F)c3ncccc3n2CCN1C1CC1 [Example 47, 10-(4-Chloro-2-fluorophenyl)-8-cyclopropyl-7,8-dihydropyrido[2′,3′:4,5]pyrrolo[1,2-a]pyrazin-9(6H)-one] |
| 6.16 | 7.79 | 8.05 | 7.61 |  |  |  |  | O=C1c2c(-c3ccc(Cl)cc3)c3ncccc3n2CC2CCN12 (single isomer, unassigned) [Example 69] |
